Results reported in patent US20140155376A1, “PYRROLOPYRAZINE KINASE INHIBITORS” (Hoffmann-La Roche Inc., priority 2010, published 2014).

Molecular target: T1, JAK3 (recombinant human kinase domain; h-jak3(810-1124)) (Homo sapiens, UniProt P52333)
T1 construct: h-jak3(810- 1124)-sf9-c; made in house; host or cells: Sf9 insect cells
Experiment: Determination of IC50 of Janus Kinase (JAK) inhibition: JAK3, radioactive end-point assay with 33P-ATP
Assay type: biochemical
Conditions: JAK3 kinase domain; ATP 1.5 uM, peptide 50 uM, 20 minutes, room temperature, 10% DMSO; read-out: Ic50 h-jak3(810-1124)-sf9-c:no additive

T1 sequence (P52333 810-1124): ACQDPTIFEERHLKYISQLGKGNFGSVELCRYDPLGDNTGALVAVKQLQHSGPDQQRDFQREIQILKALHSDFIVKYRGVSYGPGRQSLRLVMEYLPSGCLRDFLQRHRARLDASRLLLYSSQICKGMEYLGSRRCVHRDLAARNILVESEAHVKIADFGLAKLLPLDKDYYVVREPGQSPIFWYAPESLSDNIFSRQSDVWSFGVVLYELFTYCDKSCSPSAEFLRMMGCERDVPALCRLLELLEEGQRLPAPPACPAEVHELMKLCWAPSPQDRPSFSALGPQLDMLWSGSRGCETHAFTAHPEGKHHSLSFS

Structure (SMILES) | IC50 [nM]
C[C@@H]1C[C@H]1c1cnc2[nH]cc(C(=O)NCC(C)(C)CO)c2n1 [Example I-43, 2-((1R,2R)-2-Methyl-cyclopropyl)-5H-pyrrolo[2,3-b]pyrazine-7-carboxylic acid (3-hydroxy-2,2-dimethyl-propyl)-amide] | 121
C[C@H](NC(=O)c1c[nH]c2ncc(-c3ccc(C(=O)N[C@H](C)C(C)(C)C)s3)nc12)C(C)(C)C [Example I-209, 2-[5-((R)-1,2,2-Trimethyl-propylcarbamoyl)-thiophen-2-yl]-5H-pyrrolo[2,3-b]pyrazine-7-carboxylic acid ((S)-1,2,2-trimethyl-propyl)-amide] | 0.47
Cc1cc(C)nc(Oc2cnc3[nH]cc(C(=O)NC(C)C)c3n2)c1 [Example I-279, 2-(4,6-Dimethyl-pyridin-2-yloxy)-5H-pyrrolo[2,3-b]pyrazine-7-carboxylic acid isopropylamide] | 1110
CC(C)NC(=O)c1c[nH]c2ncc(Oc3cccc4[nH]ccc34)nc12 [Example I-274, 2-(1H-Indol-4-yloxy)-5H-pyrrolo[2,3-b]pyrazine-7-carboxylic acid isopropylamide] | 353
CN(C)c1cnc2[nH]cc(C(=O)NCC(C)(C)CO)c2n1 [Example I-4, 2-Dimethylamino-5H-pyrrolo[2,3-b]pyrazine-7-carboxylic acid (3-hydroxy-2,2-dimethyl-propyl)-amide] | 34.9
C[C@H](NC(=O)c1c[nH]c2ncc(-c3ccccn3)nc12)C(C)(C)C [Example I-72, 2-Pyridin-2-yl-5H-pyrrolo[2,3-b]pyrazine-7-carboxylic acid ((S)-1,2,2-trimethyl-propyl)-amide] | 10
CC(C)(CO)CNC(=O)c1c[nH]c2ncc(Br)nc12 [Example I-1, 2-Bromo-5H-pyrrolo[2,3-b]pyrazine-7-carboxylic acid (3-hydroxy-2,2-dimethyl-propyl)-amide] | 225
C[C@H](NC(=O)c1c[nH]c2ncc(-c3ccc(C(=O)N4CCC(C)(O)CC4)s3)nc12)C(C)(C)C [Example I-175, 2-[5-(4-Hydroxy-4-methyl-piperidine-1-carbonyl)-thiophen-2-yl]-5H-pyrrolo[2,3-b]pyrazine-7-carboxylic acid ((S)-1,2,2-trimethyl-propyl)-amide] | 0.1
C[C@H](NC(=O)c1c[nH]c2ncc(-c3ccc(C(=O)N[C@H](C)C4CC4)s3)nc12)C(C)(C)C [Example I-162, 2-[5-((R)-1-Cyclopropyl-ethylcarbamoyl)-thiophen-2-yl]-5H-pyrrolo[2,3-b]pyrazine-7-carboxylic acid ((S)-1,2,2-trimethyl-propyl)-amide] | 0.32
CC(C)NC(=O)c1c[nH]c2ncc(Oc3ccc4c(c3)[C@H](NC(=O)C3CCOCC3)CC4)nc12 [Example I-283, 2-{(R)-3-[(Tetrahydro-pyran-4-carbonyl)-amino]-indan-5-yloxy}-5H-pyrrolo[2,3-b]pyrazine-7-carboxylic acid isopropylamide] | 56.7
C[C@H](NC(=O)c1c[nH]c2ncc(-c3ccc(C(=O)NC4CCS(=O)(=O)CC4)s3)nc12)C(C)(C)C [Example I-212, 2-[5-(1,1-Dioxo-hexahydro-1λ^6-thiopyran-4-ylcarbamoyl)-thiophen-2-yl]-5H-pyrrolo[2,3-b]pyrazine-7-carboxylic acid ((S)-1,2,2-trimethyl-propyl)-amide] | 0.16
C[C@H](NC(=O)c1c[nH]c2ncc(-c3cn(-c4cccc(Cl)c4)cn3)nc12)C(C)(C)C [Example I-145, 2-[1-(3-Chloro-phenyl)-1H-imidazol-4-yl]-5H-pyrrolo[2,3-b]pyrazine-7-carboxylic acid ((S)-1,2,2-trimethyl-propyl)-amide] | 4.61
CC1CCCC(C)N1C(=O)c1ccc(-c2cnc3[nH]cc(C(=O)N[C@@H](C)C(C)(C)C)c3n2)s1 (stereo partly drawn) [Example I-181, 2-[5-(2,6-Dimethyl-piperidine-1-carbonyl)-thiophen-2-yl]-5H-pyrrolo[2,3-b]pyrazine-7-carboxylic acid ((S)-1,2,2-trimethyl-propyl)-amide] | 0.62
C[C@H](NC(=O)c1c[nH]c2ncc(C3=CCCC3)nc12)C(C)(C)O [Example I-2, 2-Cyclopent-1-enyl-5H-pyrrolo[2,3-b]pyrazine-7-carboxylic acid ((S)-2-hydroxy-1,2-dimethyl-propyl)-amide] | 5.23
CC(NC(=O)c1c[nH]c2ncc(Oc3ccccc3F)nc12)C1CC1 (stereo not shown) [Example I-114, 2-(2-Fluoro-phenoxy)-5H-pyrrolo[2,3-b]pyrazine-7-carboxylic acid (1-cyclopropyl-ethyl)-amide] | 63.4
CCNC(=O)c1c[nH]c2ncc(Oc3ccc4ccccc4c3)nc12 [Example I-262, 2-(Naphthalen-2-yloxy)-5H-pyrrolo[2,3-b]pyrazine-7-carboxylic acid ethylamide] | 1870
COCC(C)NC(=O)c1ccc(-c2cnc3[nH]cc(C(=O)N[C@@H](C)C(C)(C)C)c3n2)s1 (stereo partly drawn) [Example I-214, 2-[5-(2-Methoxy-1-methyl-ethylcarbamoyl)-thiophen-2-yl]-5H-pyrrolo[2,3-b]pyrazine-7-carboxylic acid ((S)-1,2,2-trimethyl-propyl)-amide] | 0.28
Cc1cc(-c2cnc3[nH]cc(C(=O)N[C@@H](C)C(C)(C)C)c3n2)sc1C(=O)N1CCS(=O)(=O)CC1 [Example I-220, 2-[5-(1,1-Dioxo-1λ^6-thiomorpholine-4-carbonyl)-4-methyl-thiophen-2-yl]-5H-pyrrolo[2,3-b]pyrazine-7-carboxylic acid ((S)-1,2,2-trimethyl-propyl)-amide] | 0.23
C[C@H](NC(=O)c1c[nH]c2ncc(-c3ccc(C(=O)N4CCCCC4)s3)nc12)C(C)(C)C#N [Example I-224, 2-[5-(Piperidine-1-carbonyl)-thiophen-2-yl]-5H-pyrrolo[2,3-b]pyrazine-7-carboxylic acid ((S)-2-cyano-1,2,2-trimethyl-ethyl)-amide] | 0.36
COc1ccccc1Oc1cnc2[nH]cc(C(=O)NC(C)C)c2n1 [Example I-256, 2-(2-Methoxy-phenoxy)-5H-pyrrolo[2,3-b]pyrazine-7-carboxylic acid isopropylamide] | 931
CCNC(=O)c1c[nH]c2ncc(Oc3ccccc3C)nc12 [Example I-257, 2-o-Tolyloxy-5H-pyrrolo[2,3-b]pyrazine-7-carboxylic acid ethylamide] | 2740
C[C@@H](NC(=O)c1c[nH]c2ncc(Oc3ccccc3)nc12)C1CCCCC1 [Example I-129, 2-Phenoxy-5H-pyrrolo[2,3-b]pyrazine-7-carboxylic acid ((R)-1-cyclohexyl-ethyl)-amide] | 222

Continued, values first:

IC50 [nM] | Structure (SMILES)
38.7 | C[C@@H](NC(=O)c1c[nH]c2ncc(C3CC3)nc12)[C@](C)(O)CC#N [Example I-91, 2-Cyclopropyl-5H-pyrrolo[2,3-b]pyrazine-7-carboxylic acid ((1R,2R)-3-cyano-2-hydroxy-1,2-dimethyl-propyl)-amide]
8.38 | C[C@H](NC(=O)c1c[nH]c2ncc(C3CC3)nc12)[C@@](C)(O)C(F)(F)F [Example I-53, 2-Cyclopropyl-5H-pyrrolo[2,3-b]pyrazine-7-carboxylic acid ((1S,2R)-3,3,3-trifluoro-2-hydroxy-1,2-dimethyl-propyl)-amide]
681 | N#CCNC(=O)c1c[nH]c2ncc(C3CC3)nc12 [Example I-28, 2-Cyclopropyl-5H-pyrrolo[2,3-b]pyrazine-7-carboxylic acid cyanomethyl-amide]
26.8 | C[C@@H](NC(=O)c1c[nH]c2ncc(C3CC3)nc12)C1(C#N)CCCCC1 [Example I-117, 2-Cyclopropyl-5H-pyrrolo[2,3-b]pyrazine-7-carboxylic acid [(R)-1-(1-cyano-cyclohexyl)-ethyl]-amide]
9.99 | CC(NC(=O)c1c[nH]c2ncc(C3CC3)nc12)C1CCCC1 (stereo not shown) [Example I-95, 2-Cyclopropyl-5H-pyrrolo[2,3-b]pyrazine-7-carboxylic acid (1-cyclopentyl-ethyl)-amide]
11.1 | CC(C)(C)[C@H](CO)NC(=O)c1c[nH]c2ncc(C3CC3)nc12 [Example I-52, 2-Cyclopropyl-5H-pyrrolo[2,3-b]pyrazine-7-carboxylic acid ((R)-1-hydroxymethyl-2,2-dimethyl-propyl)-amide]
163 | CS(=O)(=O)N1CCCC(CNC(=O)c2c[nH]c3ncc(C4CC4)nc23)C1 (stereo not shown) [Example I-108, 2-Cyclopropyl-5H-pyrrolo[2,3-b]pyrazine-7-carboxylic acid (1-methanesulfonyl-piperidin-3-ylmethyl)-amide]
12 | C[C@H](NC(=O)c1c[nH]c2ncc(C3CC3)nc12)C1(C#N)CCCC1 [Example I-101, 2-Cyclopropyl-5H-pyrrolo[2,3-b]pyrazine-7-carboxylic acid [(S)-1-(1-cyano-cyclopentyl)-ethyl]-amide]
1410 | O=C(N[C@@H](CC1CCCCC1)[C@@H](O)[C@@H](O)C1CC1)c1c[nH]c2ncc(C3CC3)nc12 [Example I-88, 2-Cyclopropyl-5H-pyrrolo[2,3-b]pyrazine-7-carboxylic acid ((1S,2R,3S)-1-cyclohexylmethyl-3-cyclopropyl-2,3-dihydroxy-propyl)-amide]
9.03 | COC(C)(C)CNC(=O)c1c[nH]c2ncc(C3CC3)nc12 [Example I-50, 2-Cyclopropyl-5H-pyrrolo[2,3-b]pyrazine-7-carboxylic acid (2-methoxy-2-methyl-propyl)-amide]
18 | C[C@H](NC(=O)c1c[nH]c2ncc(C3CC3)nc12)C1(O)CCCC1 [Example I-97, 2-Cyclopropyl-5H-pyrrolo[2,3-b]pyrazine-7-carboxylic acid [(S)-1-(1-hydroxy-cyclopentyl)-ethyl]-amide]
427 | C[C@H](NC(=O)c1c[nH]c2ncc(C3CC3)nc12)c1ccccc1 [Example I-67, 2-Cyclopropyl-5H-pyrrolo[2,3-b]pyrazine-7-carboxylic acid ((S)-1-phenyl-ethyl)-amide]
